The text below walks through data of US12655130B2 (ASSEMBLY BIOSCIENCES, INC., priority 2020, dated 2026).

The assay has as its system HBV viral load (viral production from HepAD38 cells). Briefly: Activity of test compounds on viral production from HepAD38 cells (viral load by qPCR of HBV core sequence). The class given is cell-based. The note with it: Hepatitis B virus, HePAD38, 120 h, viral load lowering, 5 days, qPCR of supernatant, read-out: VL HepAD38 EC50 range. How it is done:
Assay Measuring Activity of Test Compounds on Viral Production from HepAD38 Cells
HepAD38 cells grown in a T-150 flask (Corning, cat #: 430825) with Growth Medium (DMEM/F12 (1:1) (Hyclone, cat #: SH30023.02), 1× Pen/Strep (Invitrogen, cat #: 15140-122), 10% FBS (Tissue Culture Biologics, cat #: 101), 250 μg/mL G418 (Alfa Aesar, cat #: J62671), 1 μg/mL Tetracycline (Teknova, cat #: T3320)) were detached with 0.25% trypsin-EDTA (Invitrogen, cat #: 25200-056). Tetracycline-free treatment medium (15 mL DMEM/F12 (1:1) 1× Pen/step, with 2% FBS, Tet-system approved (Clontech, cat #: 631106) were then added to mix, transferred into a 50 ml conical tube (Falcon, cat #: 21008-918) and spun at 1300 rpm for 5 min. Pelleted cells were then re-suspended/washed with 50 mL of 1×DPBS (Invitrogen, cat #: 14190-136) 2 times and 50 mL treatment medium twice. HepAD38 cells were then re-suspended with 10 mL of treatment medium, syringed and counted. Wells of 96-well clear bottom TC plate (Corning, cat #: 3904) were seeded at 50,000 cells/well in 180 μL of treatment medium, and 20 μL of either 10% DMSO (Sigma, cat #: D4540) as controls or a 10× solution of test compounds in 10% DMSO in treatment media was added for a final compound concentration starting at 10 μM, and plates were incubated in 5% CO2 incubator at 37° C. for 5 days.
Subsequently viral load production was assayed by quantitative PCR (qPCR) of the HBV core sequence. PCR reaction mixture containing forward primers HBV-f 5′-CTGTGCCTTGGGTGGCITT-3′ (IDT DNA), Reverse primers HBV-r 5′-[…]-3′ (IDT DNA), Fluorescent TaqMan™ Probes HBV-probe 5′-FAM/AGCTCCAAA/ZENMITCTITATAAGGGTCGATGTC/3IABkFQ-3′ (IDT DNA), 10 μL/well of PerfeCTa® qPCR ToughMix® (Quanta Biosciences, Cat #: 95114-05K), and 6 μL/well of DEPC water (Alfa Aesar, cat #: J62087) was prepared. Four μL of supernatant was added to 16 μL of the reaction mixture in a qPCR plate (Applied Biosytems, Cat #: 4309849), sealed with a film (Applied Biosystems, Cat #: 4311971), centrifuged for a few seconds, and subsequently run on an Applied Biosystems VIIA7. The PCR mixture was incubated at 45° C. for 5 min, then 95° C. for 10 min, followed by 40 cycles of 10 seconds at 95° C. and 20 seconds at 60° C. Viral load was quantified against known HBV DNA standards by using ViiA™ 7 Software. Viral load in the supernatant from wells with treated cells were compared against viral load in supernatant from DMSO control wells (3 per plate). Cell viability assay was performed with CellTiter-Glo Luminescent Cell Viability Assay (Promega, cat #: G7573) with modification. Mixed appropriate amount of CellTiter-Glo (CTG) 1×DPBS in a 1:1 ratio, added 100 uL of the mixture to each well followed completely removal of all supernatant in each well without touching cell surface. Incubated the plate at room temperature for 10 min on an orbital shaker, and then read the plate with a plate reader (TECAN M1000 or Envision). EC50 or CC50 values were calculated through curve-fitting of the four-parameter nonlinear-logistic-regression model (GraphPad Prism or Dotmatics). CC50 values were all >10 μM.
As usually defined, the EC50 is the midpoint of the concentration-response curve. As to `Cn1cnc(C2CC3CC(O)(c4c(Cl)c(N)nn4C)CC3C2)c1C(=O)Nc1ccc(F)c(Cl)c1` (centres unmarked) [Example 98, 4-(5-(3-amino-4-chloro-1-methyl-1H-pyrazol-5-yl)-5-hydroxyoctahydropentalen-2-yl)-N-(3-chloro-4-fluorophenyl)-1-methyl-1H-imidazole-5-carboxamide], the concentration for a half-maximal effect (EC50) was less than 0.01 µM.

Regarding `Cn1cnc(C2CC3CC(O)(Cn4cccn4)CC3C2)c1C(=O)Nc1ccc(F)c(Cl)c1` (single isomer, unassigned) [Example 128, 4-(5-((1H-pyrazol-1-yl)methyl)-5-hydroxyoctahydropentalen-2-yl)-N-(3-chloro-4-fluorophenyl)-1-methyl-1H-imidazole-5-carboxamide], the EC50 is less than 0.01 µM.

Turning to `CN(C)Cc1cnn(C)c1C1(O)CC2CC(c3ncn(C)c3C(=O)Nc3ccc(F)c(Cl)c3)CC2C1` (single isomer, unassigned) [Example 70, N-(3-Chloro-4-fluorophenyl)-4-(5-(4-((dimethylamino)methyl)-1-methyl-1H-pyrazol-5-yl)-5-hydroxyoctahydropentalen-2-yl)-1-methyl-1H-imidazole-5-carboxamide], the concentration giving a half-maximal response (EC50) was less than 0.01 µM.

Consider `Cn1cnc(C2CC3CC(O)(c4[nH]ncc4C(F)(F)F)CC3C2)c1C(=O)Nc1ccc(F)c(Cl)c1` (centres unmarked) [Example 149, N-(3-Chloro-4-fluorophenyl)-4-(5-hydroxy-5-(4-(trifluoromethyl)-1H-pyrazol-5-yl)octahydropentalen-2-yl)-1-methyl-1H-imidazole-5-carboxamide], for which the EC50 is less than 0.01 µM.

On to `O=C1CC2CC(c3nc4n(c3C(=O)Nc3ccc(F)c(Cl)c3)CCC4)CC2C1` (centres unmarked) [Example 31, N-(3-Chloro-4-fluorophenyl)-2-(5-oxooctahydropentalen-2-yl)-6,7-dihydro-5H-pyrrolo[1,2-a]imidazole-3-carboxamide], for which the concentration for a half-maximal effect (EC50) was less than 0.01 µM.

Regarding `CC(N)C(=O)Nc1cc(C2(O)CC3CC(c4ncn(C)c4C(=O)Nc4ccc(F)c(Cl)c4)CC3C2)n(C)n1` (centres unmarked) [Example 219, 4-(5-(3-(2-Aminopropanamido)-1-methyl-1H-pyrazol-5-yl)-5-hydroxyoctahydropentalen-2-yl)-N-(3-chloro-4-fluorophenyl)-1-methyl-1H-imidazole-5-carboxamide], the EC50 is less than 0.01 µM.

Consider `Cn1cnc(C2CC3CC(O)(c4cc(C(C)(C)C(N)=O)nn4C)CC3C2)c1C(=O)Nc1ccc(F)c(Cl)c1` (centres unmarked) [Example 106, 4-(5-(3-(1-amino-2-methyl-1-oxopropan-2-yl)-1-methyl-1H-pyrazol-5-yl)-5-hydroxyoctahydropentalen-2-yl)-N-(3-chloro-4-fluorophenyl)-1-methyl-1H-imidazole-5-carboxamide], for which the EC50 is less than 0.01 µM.

Regarding `CC(O)c1nn(C)cc1C1(O)CC2CC(c3ncn(C)c3C(=O)Nc3ccc(F)c(Cl)c3)CC2C1` (centres unmarked) [Example 186, N-(3-Chloro-4-fluorophenyl)-4-(5-hydroxy-5-(3-(1-hydroxyethyl)-1-methyl-1H-pyrazol-4-yl)octahydropentalen-2-yl)-1-methyl-1H-imidazole-5-carboxamide], the EC50 is less than 0.01 µM.

Turning to `CC(C)Cc1cc(C2(O)CC3CC(c4ncn(C)c4C(=O)Nc4ccc(F)c(Cl)c4)CC3C2)n(C)n1` (centres unmarked) [Example 196, N-(3-Chloro-4-fluorophenyl)-4-(5-hydroxy-5-(3-isobutyl-1-methyl-1H-pyrazol-5-yl)octahydropentalen-2-yl)-1-methyl-1H-imidazole-5-carboxamide], the EC50 is less than 0.01 µM.

With `Cc1cnn(C)c1C1(O)CC2CC(c3ncn(C)c3C(=O)Nc3ccc(F)c(Cl)c3)CC2C1` (centres unmarked) [Example 131, N-(3-chloro-4-fluorophenyl)-4-(5-(1,4-dimethyl-1H-pyrazol-5-yl)-5-hydroxyoctahydropentalen-2-yl)-1-methyl-1H-imidazole-5-carboxamide], the EC50 was less than 0.01 µM.

For the compound `Cn1cnc(C2CC3CC(CC(N)=O)CC3C2)c1C(=O)Nc1ccc(F)c(Cl)c1` (centres unmarked) [Example 17, 4-(5-(2-Amino-2-oxoethyl)octahydropentalen-2-yl)-N-(3-chloro-4-fluorophenyl)-1-methyl-1H-imidazole-5-carboxamide], the concentration giving a half-maximal response (EC50) was less than 0.01 µM.
